{"source": "patent US20040138160A1", "about": "“Preventive/therapeutic method for cancer” (priority 2001, published 2004)", "key": {"[1]": {"system": "MDA-MB-231", "conditions": "breast, HER2 score 0; dose 20 mg/kg/day orally, divided into two per day, 14 days", "description": "(§1) An increase in the tumor volume from that before administration to that on the next day of the final administration was compared to that of the control group and an anti-tumor effect was studied. In addition, the tumor volume was calculated from the following equation:\n(§2) Formula: tumor volume=longer diameter×shorter diameter×shorter diameter×(1/2)\n(§3) A ratio of the value obtained by subtracting a tumor volume on the day of the administration initiation from the tumor volume on the next day of the completion of the administration in the control group, and the value obtained by subtracting the tumor volume on the day of the administration initiation from the tumor volume on the next day of the completion of the administration was determined as a growth rate (T/C (%))."}, "[2]": {"system": "HER2 expression cells (Ma-46)", "conditions": "cultured 3 days, cells counted", "description": "(§4) 1) Cell growth inhibitory action; Each cell line was sown in a 24-well-multi-well plate (5×10^4 cells/well) and cultured overnight in a carbon dioxide gas incubator (5% CO2, 37° C.)."}, "[3]": {"system": "HER2 non-expression cells (Ma-1)", "conditions": "cultured 3 days, cells counted", "description": "as §4"}, "[4]": {"system": "HER2/EGF-R co-expression cells (A549)", "conditions": "cultured 3 days, cells counted", "description": "as §4"}, "[5]": {"system": "tyrosine kinase activity other than HER2", "conditions": "read-out: IC50 value for tyrosine kinase activity other than HER2; in every case (EGFR, FGFR, PDGFR, Jak1, Src, blk)", "description": "(§5) For consideration of the action on a receptor-type tyrosine kinase, A-431 cells or NIH3T3 cells were sown in a 24 multi-well plate (2×10^5 cells/well) and cultured overnight in a carbon dioxide gas incubator (5% CO2, 37° C.). The medium was changed to a serum-free medium and the cells were further incubated for one day. […] The culture medium was removed 5 min later and SDS sample buffer was added to give a cell lysate (200 μL). For consideration of the action on a non-receptor type tyrosine kinase, A431 (Jak1), Jurkat (Src) or Namalwa cells (Blk) were sown in a 6-well multi-well plate (5×10^5 cells/well) and cultured overnight in a carbon dioxide gas incubator (5% CO2, 37° C.)."}, "[6]": {"system": "PDGFR", "conditions": "read-out: IC50 (μmol/L) PDGFR; NIH3T3 cells, PDGF 20 ng/mL; compound 2 hr", "description": "as §5"}, "[7]": {"system": "FGFR", "conditions": "read-out: IC50 (μmol/L) FGFR; NIH3T3 cells, FGF 20 ng/mL; compound 2 hr", "description": "as §5"}, "[8]": {"system": "HER2 expression human non-parvicellular lung cancer A549 cells", "assay": "Anti-tumor effect against HER2 expression tumor in nude mouse: A549", "assay_type": "in vivo", "conditions": "HER2 score 1+, dose 20 mg/kg/day orally, divided into two per day, 14 days", "description": "Immediately after transplantation and day 7 after the transplantation, estradiol dipropionate (5 mg/kg solution, 50 μL) was intramuscularly administered to the hind leg with the aim of enhancing the survival rate of the tumor. […] HER2 high expression human gastric cancer cells 4-1ST was a in vivo subcultured tumor and seed tumor piece (ca. 50 mm^3) was subcutaneously transplanted into the nude mouse.\nas §2"}, "[9]": {"molecular_target": "HER2 (Homo sapiens, UniProt P04626)", "sequence (P04626 23-1255)": "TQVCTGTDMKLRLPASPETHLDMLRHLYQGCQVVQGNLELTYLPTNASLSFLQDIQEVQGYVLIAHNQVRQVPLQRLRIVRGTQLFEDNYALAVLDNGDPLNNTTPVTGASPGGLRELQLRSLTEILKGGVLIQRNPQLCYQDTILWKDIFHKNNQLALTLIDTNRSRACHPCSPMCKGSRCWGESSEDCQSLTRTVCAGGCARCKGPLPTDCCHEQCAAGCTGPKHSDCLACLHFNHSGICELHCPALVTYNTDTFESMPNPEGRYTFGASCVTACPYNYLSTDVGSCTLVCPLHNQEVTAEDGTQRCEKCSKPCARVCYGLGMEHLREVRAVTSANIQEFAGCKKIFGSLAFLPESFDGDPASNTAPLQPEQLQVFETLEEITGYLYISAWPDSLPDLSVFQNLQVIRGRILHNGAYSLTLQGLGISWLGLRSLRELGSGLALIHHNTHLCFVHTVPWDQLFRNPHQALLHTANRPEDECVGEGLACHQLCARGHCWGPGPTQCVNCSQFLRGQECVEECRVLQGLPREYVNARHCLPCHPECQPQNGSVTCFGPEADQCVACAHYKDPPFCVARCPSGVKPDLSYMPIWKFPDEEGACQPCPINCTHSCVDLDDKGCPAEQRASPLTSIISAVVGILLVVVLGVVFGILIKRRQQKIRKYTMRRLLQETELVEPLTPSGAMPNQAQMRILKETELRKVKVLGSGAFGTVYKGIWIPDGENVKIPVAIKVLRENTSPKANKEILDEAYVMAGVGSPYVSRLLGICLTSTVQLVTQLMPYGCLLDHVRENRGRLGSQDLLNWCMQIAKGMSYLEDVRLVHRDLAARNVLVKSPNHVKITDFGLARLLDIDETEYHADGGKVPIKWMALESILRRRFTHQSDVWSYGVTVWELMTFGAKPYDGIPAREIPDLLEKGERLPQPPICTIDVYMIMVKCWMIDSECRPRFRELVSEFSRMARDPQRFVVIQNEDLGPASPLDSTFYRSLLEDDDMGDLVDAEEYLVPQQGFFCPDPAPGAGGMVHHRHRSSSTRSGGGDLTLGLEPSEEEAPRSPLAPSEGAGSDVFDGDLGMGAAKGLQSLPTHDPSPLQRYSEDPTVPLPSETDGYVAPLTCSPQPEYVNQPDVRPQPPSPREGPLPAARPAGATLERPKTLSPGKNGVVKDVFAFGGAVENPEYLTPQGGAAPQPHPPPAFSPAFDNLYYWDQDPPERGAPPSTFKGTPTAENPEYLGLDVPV", "conditions": "BT-474 tumor in nude mice; 20 mg/kg/day orally 14 days, then 10 mg/kg; tumor sampled four hours later", "description": "Four hours later, the tumor was sampled and a tumor homogenate was prepared."}, "[10]": {"system": "Akt", "assay": "cells", "conditions": "Homo sapiens, BT-474, 2 h, read-out: inhibition of activation of Akt (IC50 value)"}, "[11]": {"molecular_target": "blk (Homo sapiens, UniProt P51451)", "sequence (P51451 whole entry)": "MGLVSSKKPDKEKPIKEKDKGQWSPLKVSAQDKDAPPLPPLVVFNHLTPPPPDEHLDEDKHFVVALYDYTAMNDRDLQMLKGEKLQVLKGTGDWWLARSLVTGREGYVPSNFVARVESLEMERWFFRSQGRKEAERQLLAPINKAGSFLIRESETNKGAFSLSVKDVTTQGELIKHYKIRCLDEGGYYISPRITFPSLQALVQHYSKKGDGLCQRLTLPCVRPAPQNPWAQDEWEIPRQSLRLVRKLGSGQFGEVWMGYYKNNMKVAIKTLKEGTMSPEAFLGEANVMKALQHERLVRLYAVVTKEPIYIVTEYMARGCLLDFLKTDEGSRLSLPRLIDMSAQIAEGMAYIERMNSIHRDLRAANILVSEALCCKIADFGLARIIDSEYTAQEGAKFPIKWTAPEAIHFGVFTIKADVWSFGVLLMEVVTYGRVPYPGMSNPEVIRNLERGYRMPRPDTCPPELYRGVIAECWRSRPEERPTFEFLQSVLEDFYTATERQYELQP", "assay": "cell-based", "description": "as §5"}, "[12]": {"molecular_target": "Jak1 (Homo sapiens, UniProt P23458)", "sequence (P23458 whole entry)": "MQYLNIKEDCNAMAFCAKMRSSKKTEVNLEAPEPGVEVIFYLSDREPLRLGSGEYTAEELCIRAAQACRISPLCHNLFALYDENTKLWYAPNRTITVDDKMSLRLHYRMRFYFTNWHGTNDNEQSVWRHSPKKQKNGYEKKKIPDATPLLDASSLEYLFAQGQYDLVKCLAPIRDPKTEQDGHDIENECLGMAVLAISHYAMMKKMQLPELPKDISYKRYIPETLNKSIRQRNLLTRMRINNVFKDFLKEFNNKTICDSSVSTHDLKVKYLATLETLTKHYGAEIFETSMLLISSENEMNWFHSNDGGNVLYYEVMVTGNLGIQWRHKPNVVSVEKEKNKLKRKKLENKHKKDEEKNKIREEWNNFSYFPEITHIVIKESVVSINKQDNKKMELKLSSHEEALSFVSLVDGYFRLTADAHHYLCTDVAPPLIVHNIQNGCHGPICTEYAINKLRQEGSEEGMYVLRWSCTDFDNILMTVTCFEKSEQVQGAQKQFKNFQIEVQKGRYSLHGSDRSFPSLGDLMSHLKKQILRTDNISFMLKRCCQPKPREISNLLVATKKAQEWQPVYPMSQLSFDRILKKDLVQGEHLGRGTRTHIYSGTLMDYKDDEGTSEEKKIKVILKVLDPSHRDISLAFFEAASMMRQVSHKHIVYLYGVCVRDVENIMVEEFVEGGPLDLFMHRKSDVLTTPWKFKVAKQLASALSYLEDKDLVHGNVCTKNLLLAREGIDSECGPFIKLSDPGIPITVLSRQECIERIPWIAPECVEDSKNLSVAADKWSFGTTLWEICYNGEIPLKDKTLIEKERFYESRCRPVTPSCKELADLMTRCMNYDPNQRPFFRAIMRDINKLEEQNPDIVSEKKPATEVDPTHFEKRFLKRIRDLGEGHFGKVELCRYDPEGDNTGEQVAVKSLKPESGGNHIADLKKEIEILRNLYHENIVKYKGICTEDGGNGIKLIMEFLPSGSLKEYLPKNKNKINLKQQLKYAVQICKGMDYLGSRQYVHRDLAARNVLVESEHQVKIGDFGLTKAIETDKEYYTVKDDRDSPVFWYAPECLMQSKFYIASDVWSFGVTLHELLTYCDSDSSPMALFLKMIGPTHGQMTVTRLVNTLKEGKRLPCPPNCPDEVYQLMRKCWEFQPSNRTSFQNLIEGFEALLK", "assay": "cell-based", "description": "as §5"}, "[13]": {"molecular_target": "EGFR (Homo sapiens, UniProt P00533)", "sequence (P00533 25-1210)": "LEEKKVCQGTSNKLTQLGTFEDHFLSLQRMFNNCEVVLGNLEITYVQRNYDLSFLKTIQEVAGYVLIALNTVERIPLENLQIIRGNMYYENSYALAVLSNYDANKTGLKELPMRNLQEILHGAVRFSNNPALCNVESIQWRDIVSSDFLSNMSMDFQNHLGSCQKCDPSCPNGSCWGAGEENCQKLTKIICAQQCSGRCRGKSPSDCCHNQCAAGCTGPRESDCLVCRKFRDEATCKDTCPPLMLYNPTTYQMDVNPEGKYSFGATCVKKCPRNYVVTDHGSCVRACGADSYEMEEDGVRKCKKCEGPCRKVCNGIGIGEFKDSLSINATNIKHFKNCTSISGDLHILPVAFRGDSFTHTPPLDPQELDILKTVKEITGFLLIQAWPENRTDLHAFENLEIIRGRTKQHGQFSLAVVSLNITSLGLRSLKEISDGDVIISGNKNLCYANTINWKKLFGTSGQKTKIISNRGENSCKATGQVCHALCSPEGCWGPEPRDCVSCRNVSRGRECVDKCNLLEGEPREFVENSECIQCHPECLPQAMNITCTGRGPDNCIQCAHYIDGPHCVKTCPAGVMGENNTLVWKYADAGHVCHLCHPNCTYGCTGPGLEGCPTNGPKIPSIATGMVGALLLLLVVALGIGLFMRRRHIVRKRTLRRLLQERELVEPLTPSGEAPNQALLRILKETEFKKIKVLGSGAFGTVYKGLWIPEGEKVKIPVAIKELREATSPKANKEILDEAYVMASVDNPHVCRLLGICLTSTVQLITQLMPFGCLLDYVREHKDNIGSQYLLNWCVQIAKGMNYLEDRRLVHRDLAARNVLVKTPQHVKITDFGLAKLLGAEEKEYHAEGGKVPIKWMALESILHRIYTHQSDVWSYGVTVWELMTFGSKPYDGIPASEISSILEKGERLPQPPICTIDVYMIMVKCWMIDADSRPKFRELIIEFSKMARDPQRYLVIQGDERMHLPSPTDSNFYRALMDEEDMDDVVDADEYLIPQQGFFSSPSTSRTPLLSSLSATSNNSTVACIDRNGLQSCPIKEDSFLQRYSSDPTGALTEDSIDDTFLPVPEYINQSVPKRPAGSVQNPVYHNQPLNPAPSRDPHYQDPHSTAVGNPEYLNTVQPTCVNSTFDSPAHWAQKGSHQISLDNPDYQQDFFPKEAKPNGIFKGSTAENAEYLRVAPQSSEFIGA", "assay": "cell-based", "description": "as §5"}, "[14]": {"system": "HER2 high expression human breast cancer cells BT-474", "conditions": "1 μmol/L, cultured ~5 days", "description": "After the culture, the culture medium was removed and a cell suspension was prepared by a trypsin treatment and the cells were fixed with 70% ethanol. The DNA of the cells was stained with propidium iodide and the DNA amount was measured by a flow cytometer. The cells with a decreased amount of DNA are apoptotic (cell death) cells."}, "[15]": {"system": "HER2 high expression human gastric cancer cells 4-1ST", "conditions": "HER2 score 3+, dose 15 mg/kg/day orally, divided into two per day, 14 days", "description": "(§6) Immediately after transplantation and day 7 after the transplantation, estradiol dipropionate (5 mg/kg solution, 50 μL) was intramuscularly administered to the hind leg with the aim of enhancing the survival rate of the tumor. HER2 expression human non-parvicellular lung cancer A549 cells were suspended in Matrigel solution and 5,000,000 cells were subcutaneously transplanted into the chest of female BALB/c nude mouse (6 weeks of age). HER2 expression human kidney cancer ACHN cells (2,000,000 cells) were subcutaneously transplanted into the chest of nude mouse. HER2 high expression human gastric cancer cells 4-1ST was a in vivo subcultured tumor and seed tumor piece (ca. 50 mm^3) was subcutaneously transplanted into the nude mouse.\nas §1, §2, §3"}, "[16]": {"system": "HER2 high expression human breast cancer cells BT-474", "conditions": "HER2 score 3+, dose 20 mg/kg/day orally, divided into two per day, 14 days", "description": "as §6, §1, §2, §3"}, "[17]": {"system": "HER2 expression human kidney cancer ACHN cells", "conditions": "renal, HER2 score 1+; dose 20 mg/kg/day orally, divided into two per day, 14 days", "description": "as §6, §1, §2, §3"}, "[18]": {"system": "HER2 high expression human breast cancer cell BT-474", "assay": "Anti-tumor effect, combined use (BT-474 cancer-bearing nude mice)", "assay_type": "in vivo, mouse", "text": "Formula: Tumor volume=longer diameter×shorter diameter×shorter diameter×(1/2)"}}, "data": [{"smiles": "FC(F)(F)c1ccc(/C=C/c2nc(COc3ccc(CCCCn4ccnn4)cc3)co2)cc1", "note": "[Compound B4, 1-(4-{4-[(2-{(E)-2-[4-(trifluoromethyl)phenyl]ethenyl}-1,3-oxazol-4-yl)methoxy]phenyl}butyl)-1H-1,2,3-triazole]", "values": [{"measurement": "Compound B4 T/C (%), MDA-MB-231", "setting": "[1]", "value": 87, "unit": "%"}, {"measurement": "cell growth inhibitory action on HER2 expression cells (Ma-46)", "setting": "[2]", "value": "strong cell growth inhibitory action"}, {"measurement": "cell growth inhibitory action on HER2 non-expression cells (Ma-1)", "setting": "[3]", "value": "did not show a cell growth inhibitory action"}, {"measurement": "cell growth inhibitory action on HER2/EGF-R co-expression cells (A549)", "setting": "[4]", "value": "strong cell growth inhibitory action"}, {"measurement": "IC50", "setting": "[5]", "value": "> 25", "unit": "µM"}, {"measurement": "IC50", "setting": "[6]", "value": "> 25", "unit": "µmol/L"}, {"measurement": "IC50", "setting": "[7]", "value": "> 25", "unit": "µmol/L"}, {"measurement": "Compound B4 T/C (%), A549", "setting": "[8]", "value": 22, "unit": "%"}, {"measurement": "intra-tumor HER2 phosphorylation (per tumor weight), % of the control group", "setting": "[9]", "value": 13, "unit": "%"}, {"measurement": "IC50", "setting": "[10]", "value": 0.0019, "unit": "µM"}, {"measurement": "IC50", "setting": "[11]", "value": "> 25", "unit": "µM"}, {"measurement": "IC50", "setting": "[12]", "value": "> 25", "unit": "µM"}, {"measurement": "IC50", "setting": "[13]", "value": "> 25", "unit": "µM"}, {"measurement": "cell death induction", "setting": "[14]", "value": "induced cell death"}, {"measurement": "Compound B4 T/C (%), 4-1ST", "setting": "[15]", "value": 4, "unit": "%"}, {"measurement": "Compound B4 T/C (%), BT-474", "setting": "[16]", "value": "−18", "unit": "%"}, {"measurement": "Compound B4 T/C (%), ACHN", "setting": "[17]", "value": "−16", "unit": "%"}, {"measurement": "growth rate T/C (%)", "setting": "[18]; compound B4 20 mg/kg/day orally, divided into two per day, 14 days, trastuzumab 10 mg/kg intraperitoneally twice a week, 2 weeks, or both", "value": "−18", "unit": "%"}, {"measurement": "cases with significant decrease in the tumor volume", "setting": "[18]; same regimens as T/C", "value": "5 cases out of 5 cases"}, {"measurement": "decrease in the tumor volume (% reduction)", "setting": "[18]; same regimens as T/C", "value": "13-30%"}]}]}
